The values that follow come from patent US8865715B2, “Substituted 7-(1,2,3-Triazol-4-yl)-pyrrolo[2,3-b]pyrazines” (Merck Patent GmbH, priority 2010, dated 2014).

Holding throughout (type): biochemical
Assay [1] concerns the target T1, PDK1 (Homo sapiens, UniProt O15530).
T1 construct: His6 (N)
T1 sequence (O15530 51-556 limits assumed): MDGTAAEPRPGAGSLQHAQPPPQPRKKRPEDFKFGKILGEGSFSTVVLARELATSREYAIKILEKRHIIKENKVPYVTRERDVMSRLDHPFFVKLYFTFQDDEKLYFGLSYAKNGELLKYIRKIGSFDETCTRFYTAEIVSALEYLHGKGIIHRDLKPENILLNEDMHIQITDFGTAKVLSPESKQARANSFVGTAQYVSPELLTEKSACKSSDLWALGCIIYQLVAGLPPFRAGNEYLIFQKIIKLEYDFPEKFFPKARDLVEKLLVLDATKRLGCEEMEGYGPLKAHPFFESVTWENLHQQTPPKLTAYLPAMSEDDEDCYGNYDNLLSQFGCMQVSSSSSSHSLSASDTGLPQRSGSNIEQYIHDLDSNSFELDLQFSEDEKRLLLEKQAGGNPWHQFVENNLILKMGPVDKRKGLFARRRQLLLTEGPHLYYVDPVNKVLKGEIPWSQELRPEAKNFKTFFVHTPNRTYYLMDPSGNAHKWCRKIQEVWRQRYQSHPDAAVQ
The assay is described as follows: Test for the inhibition of PDK1 (384-well flashplate, 33P-ATP). How it is done: 4.0 Test for the Inhibition of PDK1
The experimental batches are carried out in a flashplate system with 384 wells/microtitration plate.
In each case, the PDK1 sample His6-PDK1(1-50) (3.4 nM), the PDK1 substrate biotin-bA-bA-[…] (400 nM), 4 μM ATP (with 0.2 μCi of ^33P-ATP/well) and the test substance in 50 μl of conventional experimental solution per well are incubated at 30° C. for 60 min. The test substances are employed in corresponding concentrations (if desired in a dilution series). The control is carried out without test substance. The reaction is stopped using standard methods and washed. The activity of the kinase is measured via the incorporated radioactivity in top count. In order to determine the non-specific kinase reaction (blank value), the experimental batches are carried out in the presence of 100 nM staurosporine.
The radioactivity (decompositions per minute) of the blank value (no use of test substance in the presence of staurosporine) is subtracted from all other radioactivity values. The controls (kinase activity without test substance) are set equal to 100 percent and all other radioactivity values (after subtracting the blank value) are expressed set in relation thereto (for example in % of the control).
IC50 values (50% inhibition) are determined with the aid of statistics programmes, such as, for example, RS1.

The target in assay [2] is T2, IKKε (Homo sapiens, UniProt Q14164).
T2 sequence (Q14164 1-716): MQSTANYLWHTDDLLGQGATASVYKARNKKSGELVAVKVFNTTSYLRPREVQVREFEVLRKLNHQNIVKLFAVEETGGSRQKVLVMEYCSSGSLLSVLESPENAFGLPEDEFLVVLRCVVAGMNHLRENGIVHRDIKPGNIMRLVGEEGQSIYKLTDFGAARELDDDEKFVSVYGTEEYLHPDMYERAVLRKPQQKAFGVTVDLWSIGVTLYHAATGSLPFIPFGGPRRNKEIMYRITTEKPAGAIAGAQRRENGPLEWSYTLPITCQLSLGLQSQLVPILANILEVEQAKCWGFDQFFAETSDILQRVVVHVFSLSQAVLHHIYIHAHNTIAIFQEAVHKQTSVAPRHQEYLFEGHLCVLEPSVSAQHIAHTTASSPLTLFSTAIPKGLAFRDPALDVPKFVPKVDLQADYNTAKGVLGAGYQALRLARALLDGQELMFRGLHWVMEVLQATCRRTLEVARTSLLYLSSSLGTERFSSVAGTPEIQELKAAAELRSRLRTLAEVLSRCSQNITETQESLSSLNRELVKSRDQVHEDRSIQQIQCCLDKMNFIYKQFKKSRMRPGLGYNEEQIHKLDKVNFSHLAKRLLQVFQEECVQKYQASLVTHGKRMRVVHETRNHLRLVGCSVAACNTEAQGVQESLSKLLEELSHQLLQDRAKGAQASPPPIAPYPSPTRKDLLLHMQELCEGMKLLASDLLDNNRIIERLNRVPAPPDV
In words: IKKε-kinase test (IKKepsilon), 384-well flashplate assay. How it is done: IKKε-Kinase Test (IKKepsilon)
The kinase assay is performed as 384-well flashplate assay. 1 nM IKKε, 800 nM biotinylated IκBα(19-42) peptide (biotin-C6-C6-[…]) and 10 μM ATP (with 0.3 μCi of ^33P-ATP/well) are incubated in a total volume of 50 μl (10 mM MOPS, 10 mM magnesium acetate, 0.1 mM EGTA, 1 mM dithiothreitol, 0.02% of Brij35, 0.1% of BSA, 0.1% of BioStab, pH 7.5) with or without test substance at 30° C. for 120 min. The reaction is stopped using […] of 200 mM EDTA solution, filtered off with suction after 30 min at room temperature, and the wells are washed 3 times with 100 μl of 0.9% NaCl solution. The non-specific proportion of the kinase reaction (blank) is determined using 3 μM EMD 1126352 (BX-795). Radioactivity is measured in the Topcount. IC50 values are calculated using RS1.

Assay [3] concerns the target T3, TANK binding kinase (TBK1) (Homo sapiens, UniProt Q9UHD2).
T3 sequence (Q9UHD2 1-729): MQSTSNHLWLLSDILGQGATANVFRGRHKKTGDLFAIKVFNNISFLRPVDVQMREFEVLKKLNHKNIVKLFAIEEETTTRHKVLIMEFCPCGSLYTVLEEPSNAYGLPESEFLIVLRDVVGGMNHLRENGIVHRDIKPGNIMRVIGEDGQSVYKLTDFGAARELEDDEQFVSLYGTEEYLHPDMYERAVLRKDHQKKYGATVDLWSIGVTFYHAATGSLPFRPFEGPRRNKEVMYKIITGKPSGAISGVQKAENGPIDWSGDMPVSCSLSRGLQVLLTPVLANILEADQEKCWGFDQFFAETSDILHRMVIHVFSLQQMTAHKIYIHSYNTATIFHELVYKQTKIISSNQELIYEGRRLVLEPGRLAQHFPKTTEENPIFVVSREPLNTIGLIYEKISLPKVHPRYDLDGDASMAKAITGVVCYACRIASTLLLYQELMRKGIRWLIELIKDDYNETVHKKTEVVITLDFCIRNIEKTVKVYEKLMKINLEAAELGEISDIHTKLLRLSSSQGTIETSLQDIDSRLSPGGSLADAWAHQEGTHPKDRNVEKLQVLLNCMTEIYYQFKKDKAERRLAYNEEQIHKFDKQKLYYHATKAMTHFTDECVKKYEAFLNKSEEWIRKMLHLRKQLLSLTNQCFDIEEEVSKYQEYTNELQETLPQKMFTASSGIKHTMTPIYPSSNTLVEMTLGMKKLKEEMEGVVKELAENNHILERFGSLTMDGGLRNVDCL
The assay is described as follows: TBK1-kinase test, 384-well flashplate assay. The protocol: The kinase assay is performed as 384-well flashplate assay. 0.6 nM TANK binding kinase (TBK1), 800 nM biotinylated MELK-derived peptide (biotin-Ah-Ah-[…]) and 10 μM ATP (with 0.25 μCi of ^33P-ATP/well) are incubated in a total volume of 50 μl (10 mM MOPS, 10 mM magnesium acetate, 0.1 mM EGTA, 1 mM DTT, 0.02% of Brij35, 0.1% of BSA, pH 7.5) with or without test substance at 30° C. for 120 min. The reaction is stopped using […] of 200 mM EDTA solution, filtered off with suction after 30 min at room temperature, and the wells are washed 3 times with 100 μl of 0.9% NaCl solution. The non-specific proportion of the kinase reaction (blank) is determined using 100 nM staurosporine. Radioactivity is measured in the Topcount. IC50 values are calculated using RS1.

Regarding `c1ccc(Cn2cc(-c3c[nH]c4nccnc34)nn2)cc1` [Compound A1, 7-(1-benzyl-1H-1,2,3-triazol-4-yl)-5H-pyrrolo[2,3-b]pyrazine], the IC50 in assay [1], in assay [2] and in assay [3] was 1 to 10 µM each time.

In the case of `Cn1cc(-c2cnc3[nH]cc(-c4cn(Cc5ccccc5)nn4)c3n2)cn1` [Compound A2, 7-(1-benzyl-1H-1,2,3-triazol-4-yl)-2-(1-methyl-1H-pyrazol-4-yl)-5H-pyrrolo[2,3-b]pyrazine], the IC50 in assay [1], in assay [2] and in assay [3] was 0.0005 to 1 µM each time.

Turning to `Cn1cc(-c2cnc3[nH]cc(-c4cn(Cc5cccc(F)c5)nn4)c3n2)cn1` [Compound A3], the IC50 in assay [1], in assay [2] and in assay [3] was 0.0005 to 1 µM in each case.

Consider `Cn1cc(-c2cnc3[nH]cc(-c4cn(Cc5ccccc5C#N)nn4)c3n2)cn1` [Compound A4], for which the IC50 in assay [1], in assay [2] and in assay [3] was 0.0005 to 1 µM each time.

As to `Cn1cc(-c2cnc3[nH]cc(-c4cn(Cc5ccccc5Cl)nn4)c3n2)cn1` [Compound A5], the IC50 in assay [1], in assay [2] and in assay [3] was 0.0005 to 1 µM throughout.

In the case of `Cn1cc(-c2cnc3[nH]cc(-c4cn(Cc5cccc(F)c5F)nn4)c3n2)cn1` [Compound A7], the IC50 in assay [1], in assay [2] and in assay [3] was 0.0005 to 1 µM throughout.

Take `Cn1cc(-c2cnc3[nH]cc(-c4cn(Cc5ccc(F)cc5)nn4)c3n2)cn1` [Compound A10]: the IC50 in assay [1], in assay [2] and in assay [3] was 0.0005 to 1 µM throughout.

`Cn1cc(-c2cnc3[nH]cc(-c4cn(C(CCN5CCCC5)c5ccccc5)nn4)c3n2)cn1` (centres unmarked) [Compound A11, 7-[1-(3-Pyrrolidin-1-yl-1-phenylpropyl)-1H-1,2,3-triazol-4-yl]-2-(1-methyl-1H-pyrazol-4-yl)-5H-pyrrolo[2,3-b]pyrazine]: the IC50 in assay [1], in assay [2] and in assay [3] was 0.0005 to 1 µM in each case.

Take `Cn1cc(-c2cnc3[nH]cc(-c4cn(Cc5ccccc5F)nn4)c3n2)cn1` [Compound A12]: the half-maximal inhibitory concentration (IC50) in assay [1] and in assay [3] was 0.0005 to 1 µM in each case.
